From patent US20210317111A1, “NOVEL MEDICAMENT FOR TREATING INFLAMMATORY BOWEL DISEASE” (OTSUKA PHARMACEUTICAL CO., LTD., priority 2018, published 2021)
Converted amounts (≈) assume the structure as drawn.

Key:
[1] = system: Mycobacterium avium subspecies paratuberculosis (MAP); assay: antibacterial activity (MIC), broth microdilution method; type: cell-based; details: 336 h
Protocol: The chronic enterocolitis of ruminants which is caused by Mycobacterium avium subspecies paratuberculosis (MAP) is similar to Crohn's disease. […] Thus, the antibacterial activity of the present compound against MAP was evaluated. The used comparative drugs for the present compound were rifaximin (RFX), ciprofloxacin (CPFX), metronidazole (MTZ), clarithromycin (CAM), rifabutin (RBT), and clofazimine (CFZ).
The antibacterial activity (minimum inhibitory concentration (MIC)) was assayed by broth microdilution method which is based on Clinical and laboratory standards institute (CLSI).
The 5 strains of MAP were inoculated onto Middlebrook 7H9 agar containing 10% dubos oleic albumin complex (OADC), Tween 80 (0.5 g/L), mycobactin J (2 mg/L), and 1.5% agar, and pre-cultured at 37° C. under an aerobic condition for 14 days. After the pre-culture, the bacterial cell was scraped out from the agar, and prepared to the turbidity of 0.5 Mcfarland standard using Middlebrook 7H9 broth containing 10% dubos oleic albumin complex (OADC), Tween 80 (0.5 g/L), and mycobactin J (2 mg/L)]. The 10-fold diluted solution of the bacterial suspension was inoculated onto Middlebrook 7H9 broth 96-well plate which contains the present compound or any one of the comparative drugs, and incubated at 37° C. under an aerobic condition for 14 days.
After the incubation, the bacterial growth in each well of the 96-well plate was visually checked. The minimum concentration at which the bacterial growth was not observed, compared with the result of the well containing neither present compound nor comparative drug was determined as MIC of the present compound or each comparative drug against each test bacterium.

[2] = system: naive T cell transfer model of colitis; assay: naive T cell transfer model of colitis (Crohn's disease mouse model), histological scoring of large intestine; type: in vivo; details: from 2nd week after transplantation for 2 weeks; present compound, CPFX, RFX oral once a day 10 mg/kg; antibody 25 mg/kg i.p. twice a week; 4th week
Excerpt: From spleen of Balb/c mouse, naive T cell (CD4+CD62L+CD44−) was isolated with antibody-coated magnetic beads. The isolated naive T cell (5×10^5 cells/mouse) was transplanted in abdominal cavity of SCID mouse which is a severe combined immunodeficiency animal. The present compound was orally administered to the mouse once a day at each dose defined in Table 1 below, from the first day of the transplantation for Test 1, or from the 2nd week after the transplantation for Test 2, until 5 weeks after the transplantation. [table] […] The anti-TNF-α antibody was intraperitoneally administered to the mouse twice a week at each dose defined in Table 2 below, from the 2nd week after the transplantation, for 2 weeks. [table] At 5th week for Tests 1 and 2, and at 4th week for Test 3, the large intestine was removed, and the length and weight of the large intestine were measured. In addition, the large intestine was fixed with formalin to carry out pathological analysis. From the removed large intestine, the anus part, the center part, and the cecal part were cut out each in about 0.5 cm, and each part was fixed with formalin. The paraffin block thereof was prepared, sliced, and subjected to H&E staining. The H&E stained slice was examined with a microscope to score it histologically. The histological scoring was carried out by scoring the inflammatory cell infiltrate, the Goblet cell loss, and the hyperplasia of mucosal epithelium, based on the standard (0-4) defined in Table 3 below. [table]

TNF-α production = assay: inhibition of LPS-induced TNF-α production in human peripheral blood (ELISA); type: cell-based; details: human peripheral blood, 24 hours; for inhibitory activity for TNF-α production over concentration range: 1, 3, 10, 30, 100 μM
Protocol: The LPS solution which was adjusted to 2 μg/mL with RPMI 1640 medium was added to 48-well plate in the amount of 250 μL/well. The each diluted solution of each test compound and the diluted solution of the solvent control were added to 3 wells for each concentration in the amount of 50 μL/well, 4-fold diluted solution of human peripheral blood was added to each well (200 μL/well), and the wells were incubated at 37° C. in 5% CO2 for 24 hours. As LPS (−) control, RPMI 1640 medium without added LPS was prepared in the same manner. The final concentrations of each test sample were adjusted to 0, 1, 3, 10, 30, and 100 μM, and the final concentration of prednisolone was adjusted to 0.3 μM. 24 hours later from the incubation, each supernatant was collected and stored at −80° C. until the measurement of the TNF-α concentration.
The TNF-α concentration was measured by ELISA with Human TNF-alpha Quantikine ELISA Kit (R & D Systems). Each sample was unfrozen at room temperature, and diluted with Calibrator Diluent RD6-35 (1×) of the kit by 10-fold. The 10-fold diluted supernatant and the TNF-α standard solution were added on TNF-α microplate, and reacted according to the operating manual of the kit. After the coloring, the absorbance at wave length of 450 nm was measured with a microplate reader (Multiskan FC; Thermo Fisher […]), and the calibration curve was prepared with an analysis software (Skanit Software 3.1.0.4 RE for Multiskan FC (ja)) to read the TNF-α concentration of each sample. Calibration curve used a 4-parameter logistic curve.
The inhibition rates were presented as the mean±standard deviation using Microsoft Excel 2010. For each blood donor, the TNF-α production rate under each compound concentration was calculated with the TNF-α concentration in the supernatant of the solvent group as 100%.
The results are averages of the measurements obtained from the human peripheral blood of three volunteers.

Fusobacterium spp. = assay: antibacterial activity (MIC), agar plate dilution method; type: cell-based; details: 17 strains of Fusobacterium spp.; anaerobic, 37° C.
Protocol: There are plural reports about the relationship between intestinal bacteria and inflammatory bowel disease, and it is thought that Fusobacterium spp., one of the intestinal bacteria is a pathogenic bacteria causing inflammatory bowel disease. […] The antibacterial activity (minimum inhibitory concentration (MIC)) was assayed by agar plate dilution method which is based on Clinical and laboratory standards institute (CLSI). The medium used herein was Brucella medium with sheep blood. […] The bacterial suspension was inoculated onto Brucella agar with sheep blood which contains the present compound or any one of the comparative drugs, and incubated at 37° C. under an anaerobic condition.

TNBS-induced enteritis = TNBS-induced enteritis model; type: in vivo, rat; details: 100 mg/kg orally twice a day; 12 rats per group
Protocol: An enteritis animal model induced with 2,4,6-trinitrobenzenesulfonic acid (TNBS) is widely used as Crohn's disease model since the inflammatory finding is pathologically similar to that of human Crohn's disease. In addition, the enteritis model was used in the non-clinical study of mesalazine that is a medicament for treating Crohn's disease. Thus, this enteritis model was used as Crohn's disease model for evaluating the present compound.
Rats were made to be fasted for 24 or 48 hours, and the body weight were measured. The rats were laparotomized under isoflurane anesthesia, and 50% ethanol (0.25 mL) containing 60 mg/mL 2,4,6-trinitrobenzenesulfonic acid (TNBS) was injected into the large intestine from the cecum side toward the anal side to induce the injury. Each group composed of 12 rats was set, and vehicle, the present compound, or salazosulfapyridine (SASP) which is an already-existing drug for treating inflammatory bowel disease were administered for 7 days from the first day after the injection of TNBS. On the 8th day, each rat was laparotomized under anesthesia and killed by exsanguination. The large intestine was removed from the anus to the cecum, the large intestine was longitudinally incised, and the incised large intestine was washed with a cold saline. The lesion area of the large intestine was photographed with a digital camera. The area of the lesion area in the photograph of the large intestine was measured using image analyzing program.
Each compound was orally administered at a dose of 100 mg/kg twice a day from one day after inducing enteritis with TNBS. Each area of the lesion area on the 8th day was compared.

DSS-induced colitis = DSS-induced colitis model, stool scores; type: in vivo, rat
Excerpt: A colitis model induced by dextran sulfate sodium (DSS) is widely used as an experimental ulcerative colitis model having similarities of human ulcerative colitis regarding suppression of weight gain, colitis symptoms such as bloody stools and diarrhea, and injury formation in the large intestine. The effect of the present compound on the ulcerative colitis model was examined, and it was compared with salazosulfapyridine (SASP) clinically used as a therapeutic agent for ulcerative colitis.
Symptoms of colitis were induced by allowing rats to freely drink 3% dextran sulfate sodium (DSS) solution for 10 days. […] For the observation of stool symptoms, the degree of stool condition was scored as the score of stool firmness (Stool Consistency Score: 0, 1, 2, 3) and blood stool (Bloody Stool Score: 0, 1, 2, 3). The total of Stool Consistency Score and Bloody Stool Score was taken as the Total Stool Score. Each group was composed of 8 animals. Salazosulfapyridine (SASP), which is an already-existing drug for treating inflammatory bowel disease, the present compound or the vehicle were administrated for 10 days from the start date of 3% DSS freely drinking.

[3] = 11th day, present compound 1, 3, 10 mg/kg (P<0.01) or SASP 100 mg/kg (P<0.05) orally twice a day, Dunnett's test

## CC(C)/N=c1\cc2n(-c3ccc(Cl)cc3)c3ccccc3nc-2cc1Nc1ccc(Cl)cc1 [CFZ, clofazimine]
[1]
  MIC: 0.12 to 0.5 µg/mL (≈ 0.253 to 1.06 µM)

## CC[C@H]1OC(=O)[C@H](C)[C@@H](O[C@H]2C[C@@](C)(OC)[C@@H](O)[C@H](C)O2)[C@H](C)[C@@H](O[C@@H]2O[C@H](C)C[C@H](N(C)C)[C@H]2O)[C@](C)(OC)C[C@@H](C)C(=O)[C@H](C)[C@@H](O)[C@]1(C)O [CAM, clarithromycin]
[1]
  MIC: 0.12 to 0.25 µg/mL (≈ 0.16 to 0.334 µM)

## CO[C@H]1/C=C/O[C@@]2(C)Oc3c(C)c(O)c4c(O)c(c5c(nc6cc(C)ccn65)c4c3C2=O)NC(=O)/C(C)=C\C=C\[C@H](C)[C@H](O)[C@@H](C)[C@@H](O)[C@@H](C)[C@H](OC(C)=O)[C@@H]1C [RFX, rifaximin]
[1]
  MIC: 1 to 2 µg/mL (≈ 1.27 to 2.54 µM)
[2]
  histological score (Test 3, comparative study): little or no inhibitory effect
TNF-α production
  inhibitory activity for TNF-α production over concentration range: no inhibitory activity

## Cc1ncc([N+](=O)[O-])n1CCO [MTZ, metronidazole]
[1]
  MIC: > 128 µg/mL
Fusobacterium spp.
  MIC: 0.03 to 0.5 µg/mL (≈ 0.175 to 2.92 µM)

## Nc1ccc(O)c(C(=O)O)c1 [5-ASA, 5-aminosalicylic acid]
TNF-α production
  inhibitory activity for TNF-α production over concentration range: no inhibitory activity

## CO[C@H]1/C=C/O[C@@]2(C)Oc3c(C)c(O)c4c(c3C2=O)C2=NC3(CCN(CC(C)C)CC3)NC2=C(NC(=O)/C(C)=C\C=C\[C@H](C)[C@H](O)[C@@H](C)[C@@H](O)[C@@H](C)[C@H](OC(C)=O)[C@@H]1C)C4=O [RBT, rifabutin]
[1]
  MIC: 0.25 to 1 µg/mL (≈ 0.295 to 1.18 µM)

## O=C(O)c1cn(C2CC2)c2cc(N3CCNCC3)c(F)cc2c1=O [CPFX, ciprofloxacin]
[1]
  MIC: 0.25 to 0.5 µg/mL (≈ 0.754 to 1.51 µM)
Fusobacterium spp.
  MIC: 2 to 8 µg/mL (≈ 6.04 to 24.1 µM)
[2]
  histological score (Test 3, comparative study): little or no inhibitory effect
TNF-α production; 100 μM, read-out: inhibitory effect on TNF-α production at 100 μM
  inhibition at 100 µM: < 50%
TNF-α production
  inhibitory activity for TNF-α production over concentration range: dose-dependent inhibitory effect at a concentration of 30 μM or more

## O=C(O)c1cc(/N=N/c2ccc(S(=O)(=O)Nc3ccccn3)cc2)ccc1O [SASP, salazosulfapyridine, reference compound]
TNBS-induced enteritis
  number of death during the treatment: two
DSS-induced colitis; 100 mg/kg orally twice a day
  day from which suppression of stool score deterioration was observed: from the 9th day
DSS-induced colitis; 100 mg/kg orally twice a day, 8 animals per group
  deaths: 2
DSS-induced colitis; 11th day, present compound 1 mg/kg (P<0.05), 3, 10 mg/kg (P<0.01) or SASP 100 mg/kg orally twice a day, Dunnett's test
  bloody stool score vs vehicle control: not significant
DSS-induced colitis; [3]
  stool firmness (Stool Consistency Score) vs vehicle control: significant differences
  total stool score vs vehicle control: significant differences
